{"source": "paper PMC12500448", "about": "(Frontiers in Pharmacology, 2025)", "key": {"[1]": {"system": "human liver microsomes (HLM)", "conditions": "1-200 μM quetiapine", "experimental": "(§1) 200 μL enzymatic kinetic incubation system was adjusted according to the measurement purpose with the corresponding incubation conditions. […] The mixture without NADPH was pre-incubated at 37 °C in a water bath for 5 min, then 10 μL NADPH (20 mM) was added to initiate the reaction. Following a further 30 min incubation, the reaction was terminated by freezing at −80 °C. Prior to sample thawing, 400 μL acetonitrile was added to precipitate proteins, and 20 μL lurasidone (200 ng/mL) was added as IS. After complete dissolution of the samples, they were vortexed for 2 min and centrifuged for 10 min (13,000 rpm), then the supernatants were taken for UPLC-MS/MS detection and analysis.\n(§2) The Michaelis-Menten curves, IC50 curves, Lineweaver–Burk plots, and the mean plasma concentration–time curves were generated using GraphPad Prism software (version 9.5; GraphPad Software Inc., San Diego, CA). The pharmacokinetic parameters were derived using the non-compartmental model analysis with Drug and Statistics software (version 3.0 software, Mathematical Pharmacology Professional Committee of China, Shanghai, China)."}, "[2]": {"system": "rat liver microsomes (RLM)", "conditions": "1-200 μM quetiapine", "experimental": "as §1, §2"}, "[3]": {"assay": "Pharmacokinetics of quetiapine and N-desalkylquetiapine in rats with or without nicardipine", "assay_type": "in vivo, Sprague-Dawley rats", "conditions": "rat; for CL/F: read-out: CLz/F (converted)", "experimental": "Due to the similarity between their hepatic enzyme system and humans, Sprague-Dawley male rats are widely used in pharmacokinetics ([Martignoni et al., 2006]; [Riccardi et al., 2018]). This pharmacokinetic study was conducted on eight healthy male Sprague-Dawley rats provided by the Animal Experiment Center of the First Affiliated Hospital of Wenzhou Medical University (Zhejiang, China). Animals were housed in an environment with a temperature of 20 °C–26 °C, relative humidity of 55% ± 15%, and a light-dark cycle of 12 h/day, in strict following the guidelines for the care and use of laboratory animals by the National Research Council. The research protocol was adhered to the ARRIVE guidelines and was approved by the Experimental Animal Ethics Committee of the First Affiliated Hospital of Wenzhou Medical University (WYYY-IACUC-AEC-2023–064). Before the formal experiment, in order to mitigate the influence of food on drug absorption, Sprague-Dawley rats were fasted for 12 h and then randomly divided into two groups. Nicardipine and quetiapine are dissolved using corn oil. […] Following centrifugation at 8,000 rpm for 10 min, 100 μL of plasma supernatant was precisely taken into a new clean and dry 1.5 mL EP tube, where 300 μL acetonitrile and 10 μL IS working solution (200 ng/mL) were added, and after vortexing and centrifugation, the supernatants were taken for injection and analysis."}, "[4]": {"conditions": "treatment of refractory depression; ref Reif et al., 2023; cited from earlier work"}, "[5]": {"system": "rat liver microsomes (RLM)", "assay": "Screening of 10 drugs for inhibition of quetiapine metabolism (formation of N-desalkylquetiapine) in RLM", "assay_type": "in vitro ADME", "conditions": "RLM 0.3 mg/mL, drug 100 μM, quetiapine at Km", "experimental": "as §1"}, "[6]": {"parameters": "method as in Chen et al., 2024", "conditions": "in vivo; ref Chen et al., 2024; cited from earlier work"}, "[7]": {"conditions": "male, Sprague-Dawley, plasma, po, 15 mg/kg, quetiapine in plasma, quetiapine 15 mg/kg + nicardipine 4 mg/kg by gavage 30 min before"}, "[8]": {"conditions": "male, Sprague-Dawley, plasma, po, 15 mg/kg, quetiapine in plasma, quetiapine 15 mg/kg by gavage alone"}, "[9]": {"conditions": "metabolite N-desalkylquetiapine in plasma, quetiapine 15 mg/kg + nicardipine 4 mg/kg by gavage"}, "[10]": {"conditions": "metabolite N-desalkylquetiapine in plasma, quetiapine 15 mg/kg by gavage alone"}}, "note": "Read-outs that look alike come from different tables or passages of the source.", "data": [{"smiles": "OCCOCCN1CCN(C2=Nc3ccccc3Sc3ccccc32)CC1", "note": "[quetiapine]", "values": [{"measurement": "Km", "setting": "[1]", "result": 50.8, "unit": "µM"}, {"measurement": "Km", "setting": "[2]", "result": 48.8, "unit": "µM"}, {"measurement": "AUC(0-inf)", "setting": "[3]; [7]", "result": "108 ± 31.4", "unit": "ng·h/mL"}, {"measurement": "half-life", "setting": "[3]; [7]", "result": "5.16 ± 2.82", "unit": "h"}, {"measurement": "AUC(0-t)", "setting": "[3]; male, Sprague-Dawley, plasma, po, 15 mg/kg, quetiapine in plasma, quetiapine 15 mg/kg + nicardipine 4 mg/kg by gavage 30 min before, read-out: AUC(0-t)", "result": "106 ± 30.3", "unit": "ng·h/mL"}, {"measurement": "CL/F", "setting": "[3]; [7]", "result": 2460, "unit": "mL/min/kg"}, {"measurement": "Cmax", "setting": "[3]; male, Sprague-Dawley, plasma, po, 15 mg/kg, quetiapine in plasma, quetiapine 15 mg/kg + nicardipine 4 mg/kg by gavage 30 min before, read-out: Cmax", "result": "28.8 ± 10.7", "unit": "ng/mL"}, {"measurement": "Tmax", "setting": "[3]; male, Sprague-Dawley, plasma, po, 15 mg/kg, quetiapine in plasma, quetiapine 15 mg/kg + nicardipine 4 mg/kg by gavage 30 min before, read-out: Tmax", "result": "0.88 ± 0.52", "unit": "h"}, {"measurement": "AUC(0-inf)", "setting": "[3]; [8]", "result": "38.1 ± 6.91", "unit": "ng·h/mL"}, {"measurement": "half-life", "setting": "[3]; [8]", "result": "5.12 ± 3.56", "unit": "h"}, {"measurement": "AUC(0-t)", "setting": "[3]; male, Sprague-Dawley, plasma, po, 15 mg/kg, quetiapine in plasma, quetiapine 15 mg/kg by gavage alone, read-out: AUC(0-t)", "result": "36 ± 5.48", "unit": "ng·h/mL"}, {"measurement": "CL/F", "setting": "[3]; [8]", "result": 6730, "unit": "mL/min/kg"}, {"measurement": "Cmax", "setting": "[3]; male, Sprague-Dawley, plasma, po, 15 mg/kg, quetiapine in plasma, quetiapine 15 mg/kg by gavage alone, read-out: Cmax", "result": "12 ± 2.28", "unit": "ng/mL"}, {"measurement": "Tmax", "setting": "[3]; male, Sprague-Dawley, plasma, po, 15 mg/kg, quetiapine in plasma, quetiapine 15 mg/kg by gavage alone, read-out: Tmax", "result": "0.94 ± 0.52", "unit": "h"}, {"measurement": "incidence of adverse reactions", "setting": "[4]", "result": 78.0, "unit": "%"}, {"measurement": "incidence of serious adverse reactions", "setting": "[4]", "result": 5.7, "unit": "%"}]}, {"smiles": "O=c1c(O)c(-c2ccc(O)c(O)c2)oc2cc(O)cc(O)c12", "note": "[quercetin]", "values": [{"measurement": "inhibition rate against quetiapine metabolism", "setting": "[5]", "result": 61.47, "unit": "%"}]}, {"smiles": "COC(=O)C1=C(C)NC(C)=C(C(=O)OCCN(C)Cc2ccccc2)C1c1cccc([N+](=O)[O-])c1", "note": "(stereo not shown) [nicardipine]", "values": [{"measurement": "increase of AUC0−∞ of almonertinib", "setting": "[6]", "result": 0.87, "unit": "fold"}, {"measurement": "increase of AUC(0-t) of almonertinib", "setting": "[6]", "result": 0.95, "unit": "fold"}]}, {"smiles": "c1ccc2c(c1)N=C(N1CCNCC1)c1ccccc1S2", "note": "[N-desalkylquetiapine]", "values": [{"measurement": "AUC0−∞", "setting": "[3]; [9]", "result": "80.29 ± 27.62", "unit": "ng·h/mL"}, {"measurement": "AUC(0-t)", "setting": "[3]; [9]", "result": "70.19 ± 22.75", "unit": "ng·h/mL"}, {"measurement": "CLz/F", "setting": "[3]; [9]", "result": "3499.8 ± 1541", "unit": "mL/min/kg"}, {"measurement": "Cmax", "setting": "[3]; [9]", "result": "14.98 ± 11.59", "unit": "ng/mL"}, {"measurement": "Tmax", "setting": "[3]; [9]", "result": "0.69 ± 0.55", "unit": "h"}, {"measurement": "t1/2", "setting": "[3]; [9]", "result": "8.54 ± 5.49", "unit": "h"}, {"measurement": "AUC0−∞", "setting": "[3]; [10]", "result": "161.47 ± 62.64", "unit": "ng·h/mL"}, {"measurement": "AUC(0-t)", "setting": "[3]; [10]", "result": "160.62 ± 63.16", "unit": "ng·h/mL"}, {"measurement": "CLz/F", "setting": "[3]; [10]", "result": "1692 ± 501.3", "unit": "mL/min/kg"}, {"measurement": "Cmax", "setting": "[3]; [10]", "result": "50.66 ± 32.77", "unit": "ng/mL"}, {"measurement": "Tmax", "setting": "[3]; [10]", "result": "0.31 ± 0.13", "unit": "h"}, {"measurement": "t1/2", "setting": "[3]; [10]", "result": "3.19 ± 1.76", "unit": "h"}]}]}
